According to article PMC8200237, “New Oxaliplatin-Pyrophosphato Analogs with Improved In Vitro Cytotoxicity” (Molecules, 2021):
Like-named read-outs stand apart in the source and are kept apart here.

Legend:
[1] = test system: HCT116 human colon cancer cells; test: MTT cell viability assay, HCT116; format: cell-based; details: MTT test, 72 h; read-out: IC50 (µM) ± S.D. HCT116
Experimental: (§1) The in vitro cytotoxicity of the Pt-pyrophosphato complexes (1, 2, 3, and 4) was evaluated on a panel of human cancer cell lines and compared to that of cisplatin and oxaliplatin. Cell lines representative of colon (HCT-116), prostate (PC3), breast (MDA-MB231), and […] (OV2008) carcinomas were included.
(§2) The number of living cells was evaluated by the 3-(4,5-dimethylthiazol-2-yl)-2,5-diphenyltetrazolium bromide (MTT) assay. Briefly, HCT116 human colon cancer cells, PC3 human prostate cancer cells, OV2008 human ovarian cancer cells, and MDA MB 231 human breast cancer cells were plated in 96-well plates at a density of ~5000 cells/well. After one day of incubation at 37 °C in a humid atmosphere with 5% CO2, the culture medium was replaced with 100 µL of fresh medium (control cells) or medium containing different concentrations of the test compounds in the range 1.56–100 µM. Untreated cells were used as positive controls. After the incubation period of 72 h, 10 µL of a 0.5% (w/v) MTT/PBS solution was added to each well and the incubation was prolonged for a further 2 h. After this period, the medium was removed and replaced with 100 µL of DMSO. The absorbance of each well was measured by a microplate reader (Wallac Victor3, 1420 Multilabel Counter, Perkin-Elmer, Singapore). Each compound concentration was tested in triplicate, and results were presented as percentage of the control value. IC50 values were calculated using non-linear regression in GraphPad Prism 5.01 (San Diego, CA, USA). […]
(§3) Table S1. In vitro cytotoxicitya […]
(§4) aCells (3–5·10^3 cells […]) were treated for 72 h with increasing concentrations of the tested compounds. Cytotoxicity was assessed by the MTT test. IC50 values were calculated by the four parameter logistic model (p < 0.05). S.D. = standard deviation. OXP = oxaliplatin, CDDP = cisplatin.

[2] = test system: PC3 human prostate cancer cells; test: MTT cell viability assay, PC3; format: cell-based; details: MTT test, 72 h; read-out: IC50 (µM) ± S.D. PC3
Experimental: as §1, §2, §3, §4

[3] = test system: OV2008 human cervical cancer cells; test: MTT cell viability assay, OV2008; format: cell-based; details: MTT test, 72 h; read-out: IC50 (µM) ± S.D. OV2008
Experimental: as §1, §2, §3, §4

[4] = test system: MDA MB 231 human breast cancer cells; test: MTT cell viability assay, MDA MB 231; format: cell-based; details: MTT test, 72 h; read-out: IC50 (µM) ± S.D. MDAMB231
Experimental: as §1, §2, §3, §4

[5] = test system: panel of four human cancer cell lines; test: MTT cytotoxicity, average over the four cell lines; format: cell-based; details: average over HCT116, PC3, OV2008, MDAMB231; MTT test, 72 h; read-out: IC50 (µM) ± S.D. Average
Experimental: as §1
From this point of view, oxaliplatin represents a better reference compound, with the bidentate oxalato ligand being more similar to the bidentate pyrophosphato ligand.
as §2, §3, §4

[6] = 31P NMR chemical shift/pH titration, acidity constants; format: physicochemical; details: D2O, 31P NMR titration; for pKa1 (first inflection point, pH*): first deprotonation step; for pKa2 (second inflection point, pH*): second deprotonation of coordinated pyrophosphate
Experimental: The pH titration of complexes 1 and 2 was carried on by recording ^31P NMR spectra at different pH* values (Figure 5).
Acidity constants for complexes 1 and 2 were determined by ^31P NMR chemical shift/pH titrations. Either compound 1 or 2 (0.0047 mmol) was dissolved in 0.550 mL of D2O and transferred into an NMR tube. The pH* of the sample was adjusted to the required value by addition of DClO4 (10, 1.0, 0.5, 0.1, or 0.05 M) or NaOD (1.0, 0.5, 0.1, or 0.05 M) solutions, and the pH* value was measured by using a 3 mm diameter electrode for NMR tubes. No control of the ionic strength was performed. The pH titration curves were fitted to the Henderson−Hasselbalch equation using the program KaleidaGraph (version 3.5, Synergy Software, Reading, PA, USA).

[7] = Stability in physiological conditions by 31P NMR (pH 7.4); format: physicochemical; details: D2O, HEPES buffer 50 mM, pH 7.4, 120 mM NaCl, 37 °C
Experimental: To investigate the stability of 1 and 2 in physiological-like conditions, their solutions in D2O containing HEPES buffer (50 mM, pH = 7.4) and NaCl (120 mM) were monitored at 37 °C by ^31P NMR spectroscopy. […] However, overall, also compound 2 can be considered stable for the time necessary to perform the in vitro cytotoxicity tests (72 h, see following section).
(§5) The stability of compounds 1 and 2 at 37 °C in buffered solutions was assessed by ^31P NMR spectroscopy. Each compound (~2 mg) was dissolved in 0.8 mL of D2O containing 50 mM 4-(2-hydroxyethyl)-1-piperazineethanesulfonic acid) (HEPES) buffer (pH* = 7.4 or pH* = 6.5) and 120 mM NaCl. The resulting solutions were transferred into NMR tubes and maintained at 37 °C. ^31P NMR spectra were recorded from time to time over a period of one month.

[8] = Stability in acidic environment by 31P NMR (pH* 6.5); format: physicochemical; details: D2O, HEPES buffer 50 mM, pH* 6.5, 120 mM NaCl, 37 °C
Experimental: To simulate the acidic environment surrounding cancer tissues, the stability of 1 and 2 was also investigated at pH* = 6.5 and 37 °C by ^31P NMR spectroscopy.
as §5

[9] = test system: HCT116 cells; test: Annexin V/PI apoptosis assay by flow cytometry; format: cell-based, human
Experimental: In order to obtain information on tumor cells’ death, the Annexin V/propidium iodide (PI) assay was used in flow cytometry analyses. Annexin V provides a very sensitive method for detecting cellular apoptosis, while PI is commonly used to detect necrotic or late apoptotic cells (when positive to Annexin too). The FITC Annexin V staining was carried out after 24 and 48 h of incubation of HCT116 cells with the Pt-pyrophosphato complexes (1–4) or oxaliplatin/cisplatin (used as reference compounds) at the IC50 concentrations (Supplementary Materials, Table S1). The two-dimensional dot plots can be divided into four quadrants, corresponding to: (i) viable cells, which are negative to both probes (lower left quadrant; PI/FITC −/−), (ii) early apoptotic cells, which are PI-negative and Annexin V-positive (lower right quadrant; PI/FITC −/+), (iii) late apoptotic cells, which are Annexin- and PI-positive (upper right quadrant; PI/FITC +/+), and (iv) necrotic cells, which are PI-positive and Annexin-negative (upper left quadrant; PI/FITC +/−).
The Annexin V/PI assay was conducted as previously described in order to investigate the mechanism of cell death induced by the various compounds on HCT116 cells. […]

[10] = cited from earlier work
[11] = cited from earlier work; remark: listed apart in the source
[12] = free pyrophosphate, cited from earlier work

Row | Structure (SMILES) | IC50 [1] | IC50 [2] | IC50 [3] | IC50 [4] | IC50 [5] | pKa1 (first inflection point, pH*) [6] | pKa2 (second inflection point, pH*) [6] | time at which a small 31P NMR signal of free pyrophosphate is first observed [7] | time at which a small 31P NMR signal of free pyrophosphate is first observed [8] | % viable cells (lower left quadrant, PI-/Annexin V-) [9] | pKa1 [10] | pKa2 [10] | stability in physiological conditions [11] | pKa1 ([12]; tetrabasic acid) | pKa2 [12] | pKa3 [12] | pKa4 [12]
1 | NC1CC=CCC1N.O=P1(O)[O][Pt][O]P(=O)(O)O1 (racemic) [Compound 2, [Pt(dihydrogenpyrophosphato)(1,2-DACHEX)]] | 20 ± 2 µM | 100 ± 6 µM | 30 ± 3 µM | 39 ± 4 µM | 47 ± 6 µM | 2.02 | 4.23 | 120 h | 96 h |  |  |  |  |  |  |  | 
2 | [NH2][Pt]([NH2])([Cl])[Cl] [CDDP, cisplatin, reference compound] | 9 ± 2 µM | 9 ± 3 µM | 4 ± 1 µM | 2 ± 1 µM | 6 µM |  |  |  |  |  |  |  |  |  |  |  | 
3 | O=P1([O-])OP(=O)([O-])[O][Pt]2([NH]C3CCCC(C3)[NH]2)[O]1.[Na+].[Na+] (stereo not drawn) [Compound 1, Na2[Pt(pyrophosphato)(cis-1,3-DACH)]] | 21 ± 2 µM | 29 µM | 15 ± 2 µM | 26 ± 3 µM | 23 µM | 2.28 | 4.55 | 672 h | 168 h |  |  |  |  |  |  |  | 
4 | N[C@@H]1CCCC[C@H]1N.O=P([O-])(O)OP(=O)([O-])O.[Pt+2] [Compound 3, [Pt(dihydrogenpyrophosphato)(1R,2R-DACH)], reference compound] | 19 ± 4 µM | 100 ± 8 µM | 29 ± 5 µM | 91 ± 5 µM | 60 ± 8 µM |  |  |  |  | 84.912% | 2.06 | 4.40 | quite stable |  |  |  | 
5 | O=P1(O)OP(=O)(O)[O][Pt]2([NH]C3CCC(CC3)[NH]2)[O]1 (stereo not drawn) [Compound 4, [Pt(dihydrogenpyrophosphato)(cis-1,4-DACH)]] | 44 ± 3 µM | 100 ± 5 µM | 46 ± 5 µM | 100 ± 7 µM | 72 ± 7 µM |  |  |  |  |  | 2.03 | 4.47 | quite stable |  |  |  | 
6 | O=C1[O][Pt]2([NH][C@@H]3CCCC[C@H]3[NH]2)[O]C1=O [OXP, oxaliplatin] | 72 µM | 100 ± 5 µM | 54 ± 4 µM | 93 ± 6 µM | 80 µM |  |  |  |  |  |  |  |  |  |  |  | 
7 | O=P(O)(O)OP(=O)(O)O [Pyrophosphate] |  |  |  |  |  |  |  |  |  |  |  |  |  | 0.85 | 1.49 | 5.77 | 8.22
